Assay: Rat pharmacokinetics, IV imatinib mesylate vs IT imatinib free base/cyclodextrin (Example 9)
Format: in vivo, Sprague Dawley rats
Conditions: IV data, 60 min collection period
Procedure: Lung tissue and blood were collected for analysis.
Experimental Design and Execution: In brief, after the animals were transferred to study, all animals were randomly assigned to treatment groups per the study design below. Animals were treated either via intravenous (IV) administration of formulation R1, or via intratracheal (IT) administration for formulation R2 of the test article.
Averages for each time point are reported for groups/time points that have a minimum of 2 animals.
The Therapeutic Advantage (Rd) in Table 8 was calculated using the following equation: […]

With `Cc1ccc(NC(=O)c2ccc(CN3CCN(C)CC3)cc2)cc1Nc1nccc(-c2cccnc2)n1` [imatinib free base, imatinib] as the molecule, how does the “tissue distribution lung vs plasma” value read?
The value was “preferentially accumulates in the lung tissue”.
